In patent US20230357354A1, “CD38-BINDING CD31 PEPTIDES AND USES THEREOF” (ENCEFA, priority 2020, published 2023):

Each substance was assayed against recombinant His-tagged CD38 (Homo sapiens, UniProt P28907) (assay: Pepscan-based ELISA of His-tagged CD38 on CD31 peptide arrays). Conditions: mimic type BET (β-turn mimic, mP2 CLIPS); sample with the highest signal.
Assay type: binding
Excerpt: Different sets of sCD31 peptides were synthesized according to the following designs. Note that actual order of peptides on mini-cards in some was randomized. • Set #1 • Mimic type: linear • Label: LIN15 • Linear peptides of 15 consecutive amino acid residues in length, derived from the target sequence of sCD31 with an offset of […]. • Set #2 • Mimic type: single loop (mP2 CLIPS) • Label: LOOP7 • Constrained peptides of 9 amino acid residues in length. On positions 2-8 are incorporated 7 consecutive amino acid residues derived from the target sequence of sCD31 with an offset of 1.3 residues. Cys residues were inserted on positions 1 and 9 and joined by mP2 CLIPS in order to create a loop mimic. Native Cys residues, if present, were replaced by Ser residues. • Set #3 • Mimic type: single loop, (mP2 CLIPS) • Label: LOOP15 • Constrained peptides of 17 amino acid residues in length. On positions 2-16 are incorporated 15 consecutive amino acid residues derived from the target sequence of sCD31 with an offset of […]. Cys residues were inserted on positions 1 and 17 and joined by mP2 CLIPS in order to create a loop mimic. Native Cys residues, if present, were replaced by Ser residues. • Set #4 • Mimic type: β-turn peptide mimics (mP2 CLIPS) • Label: BET • β-turn peptide mimics of 22 amino acid residues in length. On positions 2-21 are incorporated 20 consecutive amino acid residues derived from the target sequence of sCD31 with an offset of 1.3 residues. Residues on positions 11 and 12 are replaced by a Pro-Gly motif in order to induce the β-turn formation. Cys residues were inserted on positions 1 and 22 and joined by mP2 CLIPS in order to stabilize the mimic. Native Cys residues, if present, were replaced by Ser residues.
To reconstruct epitopes of sCD31, a library of peptide-based peptide mimics was synthesized using Fmoc-based solid-phase peptide synthesis. An amino functionalized polypropylene support was obtained by grafting with a hydrophilic polymer formulation, followed by reaction with t-butyloxycarbonyl-hexamethylenediamine (BocHMDA) using dicyclohexylcarbodiimide (DCC) with N-hydroxybenzotriazole (HOBt) and subsequent cleavage of the Boc-groups using trifluoroacetic acid (TFA).
Standard Fmoc-peptide synthesis was used to synthesize peptides on the amino-functionalized solid support by custom modified JANUS liquid handling stations (Perkin Elmer).
Synthesis of structural mimics was done using CLIPS technology. CLIPS technology allows to structure peptides into single loops, double loops, triple loops, sheet-like folds, helix-like folds, and combinations thereof. CLIPS templates are coupled to cysteine residues. The side-chains of multiple cysteines in the peptides are coupled to one or two CLIPS templates. For example, a 0.5 mM solution of the P2 CLIPS (2,6-bis(bromomethyl)pyridine) is dissolved in ammonium bicarbonate (20 mM, pH 7.8)/acetonitrile (1:3, v/v). This solution is added onto the peptide arrays. The CLIPS template binds to side-chains of two cysteines as present in the solid-phase bound peptides of the peptide-arrays (455 wells plate with 3-µL wells). The peptide arrays are gently shaken in the solution for 30 to 60 minutes while completely covered in solution.
Finally, the peptide arrays are washed extensively with excess of H2O and sonicated in disrupt-buffer containing 1% SDS / 0.1 % 2,2′-(ethylenedioxy)diethanethiol in PBS (pH 7.2) at 70° C. for 30 minutes, followed by sonication in H2O for another 45 minutes.
The binding of the sample (recombinant His-tagged CD38; 9 µg/mL and 20 µg/mL) to each of the synthesized peptides was tested in a pepscan-based ELISA. The peptide arrays were incubated with primary sample solution (overnight at 4° C.). […]

Row | Substance | Value (binding intensity of His-tagged CD38), BET conformational peptide array [mAU]
1 | 271 (CKDDVLFYNIPGMKSTESYFIC) [compound 271] | 695
2 | 272 (CDDVLFYNISPGKSTESYFIPC) [compound 272] | 524
3 | 273 (CVLFYNISSMPGTESYFIPEVC) [compound 273] | 632
4 | 274 (CKMVKLKREKPGRDQNFVILEC) [compound 274] | 897
5 | 275 (CKLKREKNSRPGNFVILEFPVC) [compound 275] | 833
6 | 276 (CLKREKNSRDPGFVILEFPVEC) [compound 276] | 817
7 | 277 (CSKVESSRISPGSSIVVNITEC) [compound 277] | 839
8 | 278 (CESSRISKVSPGVVNITELFSC) [compound 278] | 637
9 | 279 (CPANFTIQKEPGIVSQTQDFTC) [compound 279] | 461
10 | 280 (CQIVVSEMLSPGRISYDAQFEC) [compound 280] | 417
11 | 281 (CIVVSEMLSQPGISYDAQFEVC) [compound 281] | 414
12 | 282 (CVVSEMLSQPPGSYDAQFEVIC) [compound 282] | 635
13 | 283 (CLSEVLRVKVPGPVDEVQISIC) [compound 283] | 601
14 | 284 (CEVLRVKVIAPGDEVQISILSC) [compound 284] | 447

Same assay, conditions: mimic type LOOP7 (single loop, mP2 CLIPS); sample with the highest signal

Row | Substance | Value (binding intensity of His-tagged CD38), LOOP7 conformational peptide array [mAU]
15 | 291 (CNFVILEFC) [compound 291] | 1186

The substances below were run on human Daudi cells (assay: not given). Conditions: glucose-deprived cells, 1 hour treatment (1 µM per figure legends; 10 µg/mL per method), 2-NBDG 500 µM 30 minutes.
Assay type: cell-based
Description: Human Daudi cells cultured in 75 cm^2 flask were centrifuged ( 300 g, 3 minutes), resuspended in warmed PBS supplemented with 10 % goat serum and seeded in 96-well microplate ( 100 µL, 2 × 10^6 cells/mL) in order to deprive cells from glucose. Cells were treated with test treatments (10 µg/mL) for 1 hour (37° C.). Cells were then incubated with 500 µM of the fluorescent and non-metabolizable glucose analog 2-NBDG ((2R,3R,4S,5R)-3,4,5,6-tetrahydroxy-2-[(7-nitro-2,1,3-benzoxadiazol-4-yl)amino]hexanal; Thermo Fischer) for 30 minutes at 37° C., and washed 4 times with PBS containing 10 % of goat serum. Images were acquired using a Zeiss microscope (20 X) and the relative fluorescence intensity of 30 cells was determined using Fiji.
To determine the effect of test compounds on glucose uptake, we developed a cellular model based on the use of human Daudi cells, a cell line known to strongly express CD38.
Human Daudi cells were plated in culture medium deprived of glucose and exposed to test treatments (peptides of Table 6) for 1 hour and then incubated with the non-metabolizable, fluorescent glucose 2-NBDG. After 30 minutes of incubation, cells were washed and imaged using a microscope. Fluorescence levels were determined using Fiji.

Row | Substance | glucose uptake (2-NBDG fluorescence)
16 | FELIVFN (Scramble peptide) [SEQ ID NO: 285, scramble peptide containing the same amino acid residues as NFVILEF in a different order] | not able to increase glucose uptake
17 | FVILEFP [SEQ ID NO: 292] | failed to reproduce the effect of sCD31
18 | HFVILEFP [SEQ ID NO: 304] | impact the glucose uptake-increasing activity of the peptide
19 | NDVILEFP [SEQ ID NO: 310] | impact the glucose uptake-increasing activity of the peptide
20 | NFVALEFP [SEQ ID NO: 296] | slightly decreased the activity of the peptide, although it remained overall active
21 | NFVDLEFP [SEQ ID NO: 315] | impact the glucose uptake-increasing activity of the peptide
22 | NFVFLEFP [SEQ ID NO: 311] | still active
23 | NFVHLEFP [SEQ ID NO: 314] | impact the glucose uptake-increasing activity of the peptide
24 | NFVIAEFP [SEQ ID NO: 297] | slightly decreased the activity of the peptide, although it remained overall active
25 | NFVIDEFP [SEQ ID NO: 319] | impact the glucose uptake-increasing activity of the peptide
26 | NFVIFEFP [SEQ ID NO: 317] | increased glucose uptake, even more efficiently than SEQ ID NO: 297
27 | NFVIHEFP [SEQ ID NO: 318] | impact the glucose uptake-increasing activity of the peptide
28 | NFVITEFP [SEQ ID NO: 316] | impact the glucose uptake-increasing activity of the peptide
29 | NFVQLEFP [SEQ ID NO: 313] | still active
30 | NFVTLEFP [SEQ ID NO: 312] | still active
31 | NHVILEFP [SEQ ID NO: 309] | impact the glucose uptake-increasing activity of the peptide
32 | NSMLIEFT [SEQ ID NO: 320] | still able to increase glucose uptake
33 | NSVILEFP [SEQ ID NO: 308] | keep glucose uptake-increasing activity
34 | NWVILEFP [SEQ ID NO: 306] | still increase glucose uptake
35 | NYVILEFP [SEQ ID NO: 305] | still increase glucose uptake
36 | QFVILEFP [SEQ ID NO: 301] | still increase glucose uptake
37 | SFVILEFP [SEQ ID NO: 302] | still increase glucose uptake, although to a lesser extent
38 | TFVILEFP [SEQ ID NO: 303] | still increase glucose uptake, although to a lesser extent

Same assay, conditions: parent SEQ ID NO: 6 (deletions) or SEQ ID NO: 8 (alanine scanning); 2-NBDG fluorescence

Row | Substance | effect of the C-terminal deletion or alanine substitution (relative to the parent peptide) on glucose uptake
39 | NFAILEFP [SEQ ID NO: 295] | had no effect on glucose uptake
40 | NFVILAFP [SEQ ID NO: 298] | had no effect on glucose uptake
41 | NFVILEAP [SEQ ID NO: 299] | had no effect on glucose uptake
42 | NFVILEFA [SEQ ID NO: 300] | had no effect on glucose uptake
